Key:
[1] = tested on: IL6; assay: Whole blood cytokine release, IL6 (ELISA); format: cell-based; conditions: diluted human whole blood, LPS 1.5 ng/ml, 18 h, mean ± 95% confidence intervals; for inhibition at 25 µM / inhibition at 50 µM / inhibition at 100 µM: read-out: % Inhibition of cytokine release, relative to vehicle: IL6
Method: (§1) Fresh, anonymized, heparinized, human blood from male donors was diluted 1:3 with RPMI containing penicillin and streptomycin. 150 μl diluted blood was added to each well of a 96 well plate then acclimatized to 37° C. and 5% CO2 for 1 hour. Inhibitors were prepared as described below then added to the diluted blood in 25 μl volume. After a further hour at 37° C. with 5% CO2, diluted blood was stimulated with LPS diluted in 25 μl RPMI containing penicillin and streptomycin to a final concentration of 1.5 ng/ml. After 18 h at 37° C. and 5% CO2, diluted blood was centrifuged at 500×g for 5 min and supernatant collected and stored at −20° C. until ELISAs were performed. Data are presented as mean inhibition relative to vehicle control ±95% confidence intervals, n=3-4 independent experiments.
(§2) Inhibitors and vehicles used for resuspension were: Compound 26, EMD Millipore, Cat #5.31237.0001, resuspended in DMSO; PF 06650833, R & D Systems, Cat #6373, resuspended in DMSO; OEPC (oleyloxyethyl phosphorylcholine), Santa Cruz Biotechnology, item # sc-200711, resuspended in DMSO; YM26734, Santa Cruz Biotechnology, item # sc-204410, resuspended in DMSO; Isoquercetin, Cayman Chemical, item #24926, resuspended in DMSO; ISA-2011B, Medchem Express, cat # HY-16937, resuspended in DMSO; Benzamil, TOCRIS, Cat #3380/10, resuspended in water; Cell permeable NFAT inhibitor (11R-VIVIT), Tocris, Cat #5710, resuspended in PBS. ELISAs were performed using Duoset reagents from R&D systems, catalogue # DY210 (human TNF), # DY206 (human IL6), and #DY201 (human IL-1β).

[2] = tested on: TNF; assay: Whole blood cytokine release, TNF (ELISA); format: cell-based; conditions: diluted human whole blood, LPS 1.5 ng/ml, 18 h, mean ± 95% confidence intervals; for inhibition at 25 µM / inhibition at 50 µM / inhibition at 100 µM: read-out: % Inhibition of cytokine release, relative to vehicle: TNF
Method: as §1, §2

[3] = tested on: IL1β; assay: Whole blood cytokine release, IL-1β (ELISA); format: cell-based; conditions: diluted human whole blood, LPS 1.5 ng/ml, 18 h, mean ± 95% confidence intervals; for inhibition at 25 µM / inhibition at 50 µM / inhibition at 100 µM: read-out: % Inhibition of cytokine release, relative to vehicle: IL1β
Method: as §1, §2

[4] = tested on: proinflammatory cytokine release; assay: Whole blood cytokine release assay, cytokines not itemised; format: cell-based, human; conditions: for Effect on (proinflammatory) cytokine release in whole blood assay (in words): in response to LPS stimulation
Method: as §1, §2
Where direct chemical modulators of the proposed inflammatory modulators were available, we tested their effect on endothelial permeability using ECIS and/or on the leukocyte inflammatory response using the whole blood assay described above.
Agents used were SJ000291942 (Sigma #SML2087-5MG) and saxagliptin (Santa Cruz Biotechnology #sc-473161), both resuspended in DMSO.

[5] = target: NFATC2 (Nuclear Factor Of Activated T Cells 2) (human)

Question: 11R-VIVIT was tested. Which “% Inhibition of cytokine release, relative to vehicle: IL6” value (“% Inhibition … relative to vehicle: IL6” below) ([1]; 12.5 μM) did it give?
Answer: Its value is −10% ± 16.7%.

Question: What about the “% Inhibition … relative to vehicle: IL6” value ([1]; 25 μM) of the same compound?
Answer: Its value is 2% ± 32.9%.

Question: And the “% Inhibition … relative to vehicle: IL6” value ([1]; 50 μM)?
Answer: The value was 87% ± 17.9%.

Question: And the “% Inhibition of cytokine release, relative to vehicle: TNF” value (“% Inhibition … relative to vehicle: TNF” for short) ([2]; 12.5 μM)?
Answer: Its value is 23% ± 12.2%.

Question: And the “% Inhibition … relative to vehicle: TNF” value ([2]; 25 μM)?
Answer: Its value is 40% ± 7.1%.

Question: What about the “% Inhibition … relative to vehicle: TNF” value ([2]; 50 μM) of the same compound?
Answer: Its value is 79% ± 14.3%.

Question: And the “% Inhibition of cytokine release, relative to vehicle: IL1β” value (from here on “% Inhibition … relative to vehicle: IL1β”) ([3]; 12.5 μM)?
Answer: Its value is 32% ± 13.0%.

Question: And the “% Inhibition … relative to vehicle: IL1β” value ([3]; 25 μM)?
Answer: Its value is 48% ± 27.4%.

Question: And the “% Inhibition … relative to vehicle: IL1β” value ([3]; 50 μM)?
Answer: Its value is 51% ± 26.3%.

Question: With `NC(=NCc1ccccc1)NC(=O)c1nc(Cl)c(N)nc1N` [Benzamil] as the compound, how does the inhibition at 25 µM ([1]; 25 μM) read?
Answer: Its inhibition at 25 µM is 11%.

Question: And the inhibition at 50 µM ([1]; 50 μM)?
Answer: The inhibition at 50 µM was 22%.

Question: And the inhibition at 100 µM ([1]; 100 μM)?
Answer: Its inhibition at 100 µM is 65%.

Question: And the inhibition at 25 µM ([2]; 25 μM)?
Answer: Its inhibition at 25 µM is 4%.

Question: And the inhibition at 50 µM ([2]; 50 μM)?
Answer: The inhibition at 50 µM was 23%.

Question: What about the inhibition at 100 µM ([2]; 100 μM) of the same compound?
Answer: The inhibition at 100 µM was 69%.

Question: What about the inhibition at 25 µM ([3]; 25 μM) of the same compound?
Answer: Its inhibition at 25 µM is 32%.

Question: And the inhibition at 50 µM ([3]; 50 μM)?
Answer: Its inhibition at 50 µM is 48%.

Question: What about the inhibition at 100 µM ([3]; 100 μM) of the same compound?
Answer: The inhibition at 100 µM was 60%.

Question: For `CN1CC(=O)N2[C@H](c3c[nH]c4ccc(Cl)cc34)c3cc4c(cc3C[C@H]2C1=O)OCO4` [ISA-2011B], which “% Inhibition … relative to vehicle: IL6” value ([1]; 1 μM) is on record?
Answer: Its value is −7% ± 7.7%.

Question: And the “% Inhibition … relative to vehicle: IL6” value ([1]; 10 μM)?
Answer: Its value is 6% ± 19.7%.

Question: What about the “% Inhibition … relative to vehicle: IL6” value ([1]; 100 μM) of the same compound?
Answer: Its value is 24% ± 19.5%.

Question: And the “% Inhibition … relative to vehicle: TNF” value ([2]; 1 μM)?
Answer: Its value is 1% ± 11.2%.

Question: And the “% Inhibition … relative to vehicle: TNF” value ([2]; 10 μM)?
Answer: The value was 17% ± 7.6%.

Question: And the “% Inhibition … relative to vehicle: TNF” value ([2]; 100 μM)?
Answer: Its value is 55% ± 8.8%.

Question: And the “% Inhibition … relative to vehicle: IL1β” value ([3]; 1 μM)?
Answer: Its value is 17% ± 9%.

Question: What about the “% Inhibition … relative to vehicle: IL1β” value ([3]; 10 μM) of the same compound?
Answer: Its value is 23% ± 6%.

Question: What about the “% Inhibition … relative to vehicle: IL1β” value ([3]; 100 μM) of the same compound?
Answer: Its value is 86% ± 2.9%.

Question: And the “Effect on (proinflammatory) cytokine release in whole blood assay (in words)” value (shortened to “Effect”) [4]?
Answer: Its value is “inhibits cytokine release”.

Question: How did the inhibition at 25 µM ([1]; 25 μM) turn out when `O=c1c(O[C@@H]2O[C@H](CO)[C@@H](O)[C@H](O)[C@H]2O)c(-c2ccc(O)c(O)c2)oc2cc(O)cc(O)c12` [Isoquertecin, Isoquercetin] was run?
Answer: The inhibition at 25 µM was 26%.

Question: And the inhibition at 50 µM ([1]; 50 μM)?
Answer: The inhibition at 50 µM was 31%.

Question: What about the inhibition at 100 µM ([1]; 100 μM) of the same compound?
Answer: Its inhibition at 100 µM is 26%.

Question: And the inhibition at 25 µM ([2]; 25 μM)?
Answer: Its inhibition at 25 µM is 9%.

Question: What about the inhibition at 50 µM ([2]; 50 μM) of the same compound?
Answer: The inhibition at 50 µM was 23%.

Question: And the inhibition at 100 µM ([2]; 100 μM)?
Answer: The inhibition at 100 µM was 29%.

Question: What about the inhibition at 25 µM ([3]; 25 μM) of the same compound?
Answer: Its inhibition at 25 µM is 15%.

Question: What about the inhibition at 50 µM ([3]; 50 μM) of the same compound?
Answer: Its inhibition at 50 µM is 25%.

Question: What about the inhibition at 100 µM ([3]; 100 μM) of the same compound?
Answer: Its inhibition at 100 µM is 19%.

Question: `CCCCCCCCCCCCCCCCCCc1ccc(C(=O)/C=C/C(=O)O)cc1` [OBAA] was tested. Which “Effect” value [4] did it give?
Answer: The value was “dose-dependent inhibition”.

Question: Which “% Inhibition … relative to vehicle: IL6” value ([1]; 12.5 μM) does the source give for `CCCCCCCC/C=C\CCCCCCCCOCCOP(=O)([O-])OCC[N+](C)(C)C` [OEPC, oleyloxyethyl phosphorylcholine] here?
Answer: Its value is −3% ± 17.6%.

Question: What about the “% Inhibition … relative to vehicle: IL6” value ([1]; 25 μM) of the same compound?
Answer: Its value is 39% ± 14.1%.

Question: What about the “% Inhibition … relative to vehicle: IL6” value ([1]; 50 μM) of the same compound?
Answer: Its value is 65% ± 11.7%.

Question: And the “% Inhibition … relative to vehicle: IL6” value ([1]; 100 μM)?
Answer: The value was 83% ± 6.2%.

Question: And the “% Inhibition … relative to vehicle: TNF” value ([2]; 12.5 μM)?
Answer: Its value is −9% ± 17.3%.

Question: And the “% Inhibition … relative to vehicle: TNF” value ([2]; 25 μM)?
Answer: Its value is 6% ± 17.4%.

Question: And the “% Inhibition … relative to vehicle: TNF” value ([2]; 50 μM)?
Answer: The value was 37% ± 14.7%.

Question: What about the “% Inhibition … relative to vehicle: TNF” value ([2]; 100 μM) of the same compound?
Answer: The value was 57% ± 6.5%.

Question: How did the “Proinflammatory cytokine secretion from whole blood (in words)” value ([4]; whole blood with and without LPS, BMP receptor signaling agonist, FIG. 81C) turn out when `CCc1ccc(OCC(=O)Nc2ccc(F)c([N+](=O)[O-])c2)cc1` [SJ000291942] was run?
Answer: The value was “enhances proinflammatory cytokine secretion”.

Question: With `CCCCCCCCCCCC(=O)c1c(O)c(C(=O)CCCCCCCCCCC)c(O)c(C2CC(c3ccc(O)cc3)Oc3cc(O)ccc32)c1O` (stereo not shown) [YM26734] as the compound, how does the “% Inhibition … relative to vehicle: IL6” value ([1]; 12.5 μM) read?
Answer: The value was 35% ± 18.8%.

Question: And the “% Inhibition … relative to vehicle: IL6” value ([1]; 25 μM)?
Answer: The value was 51% ± 29.5%.

Question: And the “% Inhibition … relative to vehicle: IL6” value ([1]; 50 μM)?
Answer: The value was 67% ± 21.7%.

Question: And the “% Inhibition … relative to vehicle: IL6” value ([1]; 100 μM)?
Answer: Its value is 67% ± 15.1%.

Question: What about the “% Inhibition … relative to vehicle: TNF” value ([2]; 12.5 μM) of the same compound?
Answer: Its value is 41% ± 17.6%.

Question: What about the “% Inhibition … relative to vehicle: TNF” value ([2]; 25 μM) of the same compound?
Answer: Its value is 55% ± 22.6%.

Question: What about the “% Inhibition … relative to vehicle: TNF” value ([2]; 50 μM) of the same compound?
Answer: The value was 64% ± 26.1%.

Question: What about the “% Inhibition … relative to vehicle: TNF” value ([2]; 100 μM) of the same compound?
Answer: Its value is 52% ± 22.7%.

Question: What about the “% Inhibition … relative to vehicle: IL1β” value ([3]; 12.5 μM) of the same compound?
Answer: Its value is 51% ± 12.0%.

Question: What about the “% Inhibition … relative to vehicle: IL1β” value ([3]; 25 μM) of the same compound?
Answer: Its value is 65% ± 3.5%.

Question: What about the “% Inhibition … relative to vehicle: IL1β” value ([3]; 50 μM) of the same compound?
Answer: Its value is 73% ± 11.3%.

Question: What about the “% Inhibition … relative to vehicle: IL1β” value ([3]; 100 μM) of the same compound?
Answer: Its value is 78% ± 8.9%.

Question: And the “Effect” value [4]?
Answer: The value was “dose-dependent inhibition”.

Question: Which % Inhibition of cytokine release, relative to vehicle (TNF; LPS-stimulated human whole blood, 50 µM 11R-VIVIT) [5] does the source give for “Cell permeable NFAT inhibitor (11R-VIVIT) (peptide)” here?
Answer: The % Inhibition of cytokine release, relative to vehicle (TNF; LPS-stimulated human whole blood, 50 µM 11R-VIVIT) was 79%.
